Assay results: article PMC7950324, “A general method for quantifying ligand binding to unmodified receptors using Gaussia luciferase” (The Journal of Biological Chemistry, 2021)
Read-outs that look alike come from different tables or passages of the source.

Experiments:
ɑ1AAR [1] = molecular target: T1, ɑ1AAR (Homo sapiens, UniProt P35348); assay: α1AAR ligand screening, plasma membrane–ligand BRET (α1AAR with GLuc–PM); details: for inhibition at 10 µM: 20 min
ɑ1AAR [2] = molecular target: T1, ɑ1AAR; assay: PM–ligand BRET equilibrium binding, α1AAR with GLuc–PM; set-up: expressed in transfected cells; host or cells: HEK 293T
GLuc–ɑ1AAR = molecular target: T2, GLuc–ɑ1AAR (Homo sapiens, UniProt P35348); assay: Receptor–ligand BRET equilibrium binding, GLuc–α1AAR in HEK 293T cells
T2 construct: Gaussia luciferase signal peptide (N); […]; expressed in transfected cells; host or cells: HEK 293T

[3] = molecular target: AT1 angiotensin receptor (AT1R), untagged, rat (rat) (UniProt P25095); assay: FRET or BRET; PM‒ligand (bystander) BRET with GLuc‒PM, equilibrium competition: live HEK 293T cells with unmodified receptor, GLuc‒PM and DN-Dyn; a fixed fluorescent ligand (1 μM TAMRA‒AngII, 300 ng/ml biotinylated EGF on Alexa Fluor 488 streptavidin, or 100 μg/ml Alexa Fluor 488 human transferrin) and increasing unlabeled ligand, 2 h at room temperature
[4] = molecular target: AT2 angiotensin receptor (AT2R), untagged, rat (rat) (UniProt P35351); assay: as above
AT1R [5] = molecular target: T3, AT1R (Rattus norvegicus, UniProt P25095); assay: PM–ligand BRET equilibrium binding, untagged AT1R with GLuc–PM; details: two site competitive fit
T3 construct: expressed in transfected cells; host or cells: HEK 293T
T3 sequence (P25095 1-359): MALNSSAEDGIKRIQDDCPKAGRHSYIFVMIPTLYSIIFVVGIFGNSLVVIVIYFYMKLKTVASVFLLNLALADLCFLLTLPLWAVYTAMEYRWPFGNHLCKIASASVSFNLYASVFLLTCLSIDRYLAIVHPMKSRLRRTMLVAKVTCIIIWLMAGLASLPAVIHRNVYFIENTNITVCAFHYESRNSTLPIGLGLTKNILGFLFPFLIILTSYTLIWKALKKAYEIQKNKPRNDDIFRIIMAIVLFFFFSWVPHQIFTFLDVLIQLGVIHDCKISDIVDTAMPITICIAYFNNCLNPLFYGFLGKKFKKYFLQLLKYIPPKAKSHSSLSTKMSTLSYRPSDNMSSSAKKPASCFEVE

AT1R [6] = molecular target: T3, AT1R; assay: PM–ligand BRET equilibrium binding, untagged AT1R with NanoLuc–PM; details: 1 μM TAMRA–AngII, two site competitive fit
GLuc–AT1R [7] = molecular target: T4, GLuc–AT1R (Rattus norvegicus, UniProt P25095); assay: Kinetic receptor–ligand BRET, GLuc–AT1R; format: binding
T4 construct: Gaussia luciferase signal peptide (N); expressed in transfected cells; host or cells: HEK 293T
T4 sequence (P25095 1-359): T3 sequence (P25095 1-359)

GLuc–AT1R [8] = molecular target: T4, GLuc–AT1R; assay: Receptor–ligand BRET equilibrium binding, GLuc–AT1R in HEK 293T cells; details: 1 μM TAMRA–AngII, two site competitive fit, 2 h room temperature
NanoLuc–AT1R = molecular target: T5, NanoLuc–AT1R (Rattus norvegicus, UniProt P25095); assay: Receptor–ligand BRET equilibrium binding, NanoLuc–AT1R in HEK 293T cells; details: 1 μM TAMRA–AngII, two site competitive fit, 2 h room temperature
T5 construct: secretion signal peptide of interleukin-6 (N); expressed in transfected cells; host or cells: HEK 293T
T5 sequence (P25095 1-359): T3 sequence (P25095 1-359)

AT1R [9] = molecular target: T3, AT1R; assay: Kinetic PM–ligand BRET, AT1R with GLuc–PM; format: binding
[10] = read-out: plasma membrane-ligand BRET decrease (%) Replicate1
[11] = read-out: plasma membrane-ligand BRET decrease (%) Replicate2
[12] = 375 nM BODIPY FL–prazosin, one site competitive fit, PM–ligand BRET
[13] = 375 nM BODIPY FL–prazosin, one site competitive fit, receptor–ligand BRET

T2 sequence (P35348 whole entry): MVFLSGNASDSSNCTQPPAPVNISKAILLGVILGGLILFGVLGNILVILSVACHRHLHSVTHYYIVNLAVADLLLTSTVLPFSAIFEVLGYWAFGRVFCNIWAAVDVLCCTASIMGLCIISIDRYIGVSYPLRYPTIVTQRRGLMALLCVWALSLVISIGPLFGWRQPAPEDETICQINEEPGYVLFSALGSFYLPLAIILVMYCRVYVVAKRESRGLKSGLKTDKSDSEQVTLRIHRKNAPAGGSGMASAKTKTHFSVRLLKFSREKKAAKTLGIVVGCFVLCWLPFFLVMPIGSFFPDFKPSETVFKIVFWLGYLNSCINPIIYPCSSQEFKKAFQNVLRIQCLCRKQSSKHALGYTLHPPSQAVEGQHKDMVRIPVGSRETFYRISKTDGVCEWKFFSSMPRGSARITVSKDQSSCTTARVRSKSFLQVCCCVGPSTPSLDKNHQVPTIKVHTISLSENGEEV
T1 sequence (P35348 whole entry): as above
Chain of AT2 angiotensin receptor (AT2R), untagged, rat (rat) (P35351 whole entry): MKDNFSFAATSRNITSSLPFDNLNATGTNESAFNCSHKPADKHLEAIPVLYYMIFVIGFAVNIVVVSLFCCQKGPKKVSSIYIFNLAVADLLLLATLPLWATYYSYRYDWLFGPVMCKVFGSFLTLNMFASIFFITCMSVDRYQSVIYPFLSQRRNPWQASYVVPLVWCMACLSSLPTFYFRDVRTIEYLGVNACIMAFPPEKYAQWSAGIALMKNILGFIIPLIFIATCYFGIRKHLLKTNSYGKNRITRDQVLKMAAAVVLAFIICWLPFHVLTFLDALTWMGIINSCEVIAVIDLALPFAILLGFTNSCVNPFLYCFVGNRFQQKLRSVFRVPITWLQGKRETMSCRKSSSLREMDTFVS

| Compound | inhibition at 10 µM (ɑ1AAR [1]; [10]) [%] | inhibition at 10 µM (ɑ1AAR [1]; [11]) [%] | other results |
| --- | --- | --- | --- |
| CS(=O)(=O)Nc1c(O)ccc2c1CCCC2C1=NCCN1 (stereo not shown) [Compound A61603, A61603, reference compound] | -74 | -76 | – |
| Cc1cc(S(=O)(=O)NCc2ccccc2)ccc1OCC(=O)N1CCN(C)CC1 [BCC0113627] | 1.05 | -3.63 | – |
| Cc1ccnc(SCc2nc3ccccn3c2Br)n1 [BCC0020406] | -10.3 | -12 | – |
| COc1ccc(-c2nnc(SCC(=O)Nc3cc(C)cc(C)c3)[nH]2)cc1 [BCC0072526, N-(3,5-Dimethylphenyl)-2-[[5-(4-methoxyphenyl)-1H-1,2,4-triazol-3-yl]sulfanyl]acetamide] | – | – | Ki (ɑ1AAR [2]; [12]): 86.1 nM; Ki (GLuc–ɑ1AAR; [13]): 215 nM |
| [Sar^1,Ile^4,Ile^8]-angiotensin II (SII) (peptide) | – | – | IC50 of the high-affinity site (IC50 Hi) [3]: 1280 nM |
| COc1ccccc1OCCNCC(O)COc1cccc2[nH]c3ccccc3c12 (stereo not shown) [carvedilol, reference compound] | – | – | Ki (ɑ1AAR [2]): 43.8 nM; Ki (GLuc–ɑ1AAR): 62.7 nM |
| O=C(/C=C/c1nc2ccccc2o1)N1CCC(c2c[nH]c3ccccc23)CC1 [BCC0010913, (E)-3-(1,3-Benzoxazol-2-yl)-1-[4-(1H-indol-3-yl)piperidin-1-yl]prop-2-en-1-one] | – | – | Ki (ɑ1AAR [2]; [12]): 1840 nM; Ki (GLuc–ɑ1AAR; [13]): 2750 nM |
| COc1ccccc1NS(=O)(=O)c1ccc2c(c1)SC(C)C(=O)N2 (stereo not shown) [BCC0083047] | -3.44 | -2.12 | – |
| O=C(CN1CCC(n2nnc3cc(F)ccc32)CC1)N1CCc2ccccc2C1 [BCC0061678, 1-(3,4-Dihydro-1H-isoquinolin-2-yl)-2-[4-(5-fluorobenzotriazol-1-yl)piperidin-1-yl]ethanone] | – | – | Ki (ɑ1AAR [2]; [12]): 180 nM; Ki (GLuc–ɑ1AAR; [13]): 274 nM |
| CC(NC(=O)C1CC1C)c1ccc(-n2cncn2)cc1 (stereo not shown) [BCC0008909] | 4.15 | -0.3 | – |
| CSc1ccc(CNC2CN3CCC2CC3)cc1 (stereo not shown) [BCC0080607] | -0.99 | 2.8 | – |
| CN(C)CCCNCc1ccc2c(c1)OCO2 [BCC0076253] | -1.24 | -0.43 | – |
| FC(F)(F)c1cccc(OCCn2cncn2)c1 [BCC0089082] | 2.21 | 4.76 | – |
| O=C(c1noc2c1COc1ccccc1-2)N1CCN(c2cccc(Cl)c2)CC1 [BCC0066678] | -4.28 | -2.43 | – |
| O=C(NCCN1CCN(c2ccccc2)CC1)Nc1ccc2c(c1)OCCO2 [BCC0079473, 1-(2,3-Dihydro-1,4-benzodioxin-6-yl)-3-[2-(4-phenylpiperazin-1-yl)ethyl]urea] | – | – | Ki (ɑ1AAR [2]; [12]): 122 nM; Ki (GLuc–ɑ1AAR; [13]): 248 nM |
| COc1ccc(C(=O)NCCN2CCN(C(=O)c3ccc(OC)c(OC)c3)CC2)cc1OC [BCC0048283] | 0.72 | 3.82 | – |
| O=C(CN1CCN(CC(=O)Nc2cccc([N+](=O)[O-])c2)CC1)Nc1cccc([N+](=O)[O-])c1 [BCC0036095] | -1.4 | 3.14 | – |
| CCCN1CCC(N2CCN(S(=O)(=O)c3ccc(C)cc3)CC2)CC1 [BCC0058402] | -0.92 | 2.58 | – |
| CC(C)(C)Nc1nnc(Sc2ncnc3sccc23)s1 [BCC0117056] | -11.6 | -0.3 | – |
| angiotensin II (AngII) (peptide) | – | – | IC50 [4]: 479 nM |
| O=C(Cn1nnc2ccccc21)N1CCC(n2c(=O)oc3ccccc32)CC1 [BCC0101075] | -4.37 | -10.8 | – |
| CCC(=O)c1ccc(OCCN2CCOCC2)cc1 [BCC0059938] | -1.24 | -1.63 | – |
| CC[C@H](C)[C@H](NC(=O)[C@@H]1CCCN1C(=O)[C@H](Cc1c[nH]cn1)NC(=O)[C@@H](NC(=O)[C@@H](NC(=O)[C@@H](NC(=O)[C@H](CCCNC(=N)N)NC(=O)CNC)C(C)C)[C@@H](C)CC)[C@@H](C)CC)C(=O)O [SII, [Sar^1,Ile^4,Ile^8]-angiotensin II] | – | – | IC50 (AT1R [5]; read-out: IC50_Hi, agonist binding, GLuc–PM (Fig. 2M)): 1280 nM |
| Cc1cc(C)c(CNC(=O)c2ccc(NC(=O)C3CC3)cc2)c(=O)[nH]1 [BCC0003661] | -7.67 | -9.71 | – |
| C=CCOc1ccc2[nH]c(C)c(C(=O)OCC)c2c1 [BCC0065386] | 4.81 | 1.12 | – |
| O=C(CN1CCC(N2CCCCC2)CC1)N1CCC2(CC1)OCCO2 [BCC0092904] | -4.89 | -1.52 | – |
| CN1CCN(C(=O)c2ccc(-n3nc(C(F)(F)F)c4c3CCCC4)cc2)CC1 [BCC0063211] | 3.59 | 4.59 | – |
| CN1CCCCC1C#CC(O)(c1ccccc1)c1ccccc1 (stereo not shown) [BCC0068132] | – | – | plasma membrane-ligand BRET decrease (%) Replicate1 (ɑ1AAR [1]): -4,21%; plasma membrane-ligand BRET decrease (%) Replicate2 (ɑ1AAR [1]): -5,19% |
| CCOc1nc2cccc(C(=O)O)c2n1Cc1ccc(-c2ccccc2-c2nnn[nH]2)cc1 [candesartan] | – | – | IC50 (AT1R [6]; read-out: IC50_Hi): 1.29 nM; IC50 (AT1R [6]; read-out: IC50_Lo): 19.6 nM; IC50 (AT1R [5]; 1 μM TAMRA–AngII, GLuc–PM, read-out: IC50_Hi): 1.24 nM; IC50 (AT1R [5]; 1 μM TAMRA–AngII, GLuc–PM, read-out: IC50_Lo): 248000 nM; koff (GLuc–AT1R [7]): 0.00123 s⁻¹; kon (GLuc–AT1R [7]): 540000 M⁻¹ s⁻¹; IC50 (GLuc–AT1R [8]; read-out: IC50_Hi): 0.207 nM; IC50 (GLuc–AT1R [8]; read-out: IC50_Lo): 1.3 nM; IC50 (NanoLuc–AT1R; read-out: IC50_Hi): 0.52 nM; IC50 (NanoLuc–AT1R; read-out: IC50_Lo): 1 nM; koff (AT1R [9]): 0.000833 s⁻¹; kon (AT1R [9]): 278000 M⁻¹ s⁻¹ |
| Cc1cc(C(=O)NCc2ccc(F)cc2)on1 [BCC0004615] | -12.9 | -13.9 | – |
